One data set can be described thus: cells. The following applies: Mus musculus, BV-2, 24 h.
The species named for the next data set is Mus musculus. As to the kind of experiment: Cytotoxicity against mouse BV2 cells assessed as reduction in cell viability at antineuroinflammatory IC50 after 24 hrs in presence of LPS by MTT assay. Particulars: bv-2, 24 h. It counts as toxicity, cell-based.

Description for cells: Antineuroinflammatory activity in mouse BV2 cells assessed as inhibition of LPS-induced NO production after 24 hrs in presence of LPS by Griess reaction based assay

On to `COc1cc2c(c(OC)c1OC)-c1c(cc(OC)c(OC)c1OC)C[C@@](C)(O)[C@@H](C)C2`, for which the IC50 in “cells” is above 100 µM.

Take `COc1ccc(Cc2ccc(OC)cc2)cc1`: in the data set “cells”, the IC50 turned out to be 1.22 µM. The Activity entry in the data set listed under Mus musculus was “Non-Toxic”.

`CN(C)c1ccc(O)c2c1C[C@H]1C[C@H]3[C@H](N(C)C)C(O)=C(C(N)=O)C(=O)[C@@]3(O)C(O)=C1C2=O` [MINOCYCLINE]: the IC50 in the data set “cells” came to 35.8 µM.

`COc1cc([C@H]2Oc3c(OC)cc4ccc(=O)oc4c3O[C@@H]2CO)ccc1O` [CLEOMISCOSIN A]: the IC50 in “cells” is above 100 µM.

In the data set “cells”, `COc1cc2ccc(=O)oc2c(OC)c1O` gave an IC50 above 100 µM.

Regarding `COc1cc([C@@H]2COc3c(c(OC)cc4ccc(=O)oc34)O2)ccc1O`, the IC50 in “cells” is above 100 µM.

The compound `COc1cc2oc(=O)ccc2c(O)c1O` yielded an IC50 in “cells” above 100 µM.

In the case of `O=c1cc[nH]c(=O)[nH]1` [URACIL], the IC50 in the data set “cells” was above 100 µM.

In the case of `O=Cc1c[nH]c2ccccc12` [3-FORMYLINDOLE], inhibition in the data set “cells” was half-maximal at 0.76 µM (IC50). Moreover, in the data set listed under Mus musculus, the Activity result is “Non-Toxic”.

In the data set “cells”, `COc1cc2c(c(OC)c1OC)-c1c(cc3c(c1OC)OCO3)C[C@H](C)[C@H](C)C2` [WUWEIZISU B] came in with an IC50 above 100 µM.

As for `COC(=O)Nc1ccc(C)c(NC(=O)OC)c1`, half-maximal inhibition in “cells” (IC50) required 10.6 µM. Further, in the data set filed under Mus musculus, the Activity result is listed as “Non-Toxic”.

Compound `NC(=O)Cc1ccccc1` had an IC50 in the data set “cells” above 100 µM.
